Source: patent US12398141B2 (SHANGHAI SYNERGY PHARMACEUTICAL SCIENCES CO., LTD, priority 2019, dated 2025)

Assays:
[1] = Collagen-induced rheumatoid arthritis model, clinical score; type: in vivo, mice; parameters: key: 0-4 per limb by redness/deformity, max 16 per animal; conditions: clinical score 0-16 per animal, Day 0 (before modeling)
Procedure: (§1) The effects of compounds H07, H12, H14, H25, H30, H39 and H44 on rheumatoid arthritis in […] were determined after long term administration by using Lewis male […] (Beijing Vital River Laboratory Animal Technology Co., Ltd.), aged 5-6 weeks and weighing […] as test animals. The anti-inflammatory pharmacodynamics characteristic of the compounds of the invention was discussed.
(§2) A certain amount of compounds were taken and dissolved in 4% Tween 80/0.5% hydroxy propyl methyl cellulose solution. A volume of intragastric administration of mice was 10 ml/kg.
(§3) Collagen type II was dissolved in 0.1M acetic acid and kept in a 4° C. refrigerator overnight at a collagen concentration of 4 mg/mL. Same volume of incomplete Freund adjuvant (Sigma, USA) was added in collagen before injection in test, which was emulsified high speed homogenizer (30000 rpm) to prepare a collagen emulsion. This procedure was carried out on ice.
(§4) Mice were immunologically injected with the collagen emulsion by two separate times for modeling on days 1 and 7 (the day before modeling was day 0). 0.1 ml of collagen emulsion prepared as above was injected intradermally into a root of tail at a single point, and 0.2 ml was injected intradermally into back at two points. The animals were subjected to clinical score and paw volume test from day 10 to day 14 after modeling. Animals successfully modeled (average clinical score≥3 points/animal) were assigned to each administration group, with each group included 10 animals. They were administrated intragastrically with above compounds or resolvents at a dosage of 10 mg/kg twice/day, and administrated intragastrically with methotrexate (2 mg/kg, Sigma, USA) every three days, until day 27. During the test, the […] were scored twice a week, and the paw volume and body weight were measured twice.
(§5) According to the different degrees of lesions (redness and joint deformation), the scores were ranged from 0 to 4 points, with the highest score of 4 points for each limb and 16 points for each animal. Scoring standards are as follows: 0, no redness; 1, slight redness on mid legs (tarsals) or ankles; 2, slight redness from ankles to mid legs (tarsals); 3, medium redness from ankles to tarsometatarsal joints; 4, severe redness from toes or fingers to ankles or wrist joints.

Lewis male mice = test: as above; type: in vivo; parameters: key: 0-4 per limb by redness/deformity, max 16 per animal; conditions: clinical score 0-16 per animal, compounds 10 mg/kg twice/day, methotrexate 2 mg/kg every three days
Procedure: as §1, §2, §3, §4, §5

Question: With `CN(Cc1cnc2nc(N)nc(N)c2n1)c1ccc(C(=O)N[C@@H](CCC(=O)O)C(=O)O)cc1` [Methotrexate, reference compound] as the compound, how does the “Score Day 0” value [1] read?
Answer: 0.00 ± 0.00

Question: And the “Score Day 13” value (Lewis male mice; Day 13)?
Answer: 3.10 ± 0.43

Question: And the “Score Day 14” value (Lewis male mice; Day 14)?
Answer: 3.60 ± 0.37

Question: And the “Score Day 18” value (Lewis male mice; Day 18)?
Answer: 4.10 ± 0.47

Question: And the “Score Day 21” value (Lewis male mice; Day 21)?
Answer: 6.45 ± 0.23

Question: And the “Score Day 25” value (Lewis male mice; Day 25)?
Answer: 8.87 ± 0.21

Question: What about the “Score Day 27” value (Lewis male mice; Day 27) of the same compound?
Answer: 9.65 ± 0.13
